23 compounds from US12448394B2, “Heterocyclic pyrazole derivatives as type III receptor tyrosine kinase inhibitors” (DEVELOPMENT CENTER FOR BIOTECHNOLOGY, priority 2019, dated 2025) can be followed below.

For one assay, the target named is T1, MET kinase (Homo sapiens, UniProt P08581).
T1 construct: purchased SignalChem
Kind of assay: MET kinase assay (AlphaScreen, counter screen). In kind it is biochemical. The conditions noted are these: read-out: Ranking of IC50 values, MET. The procedure:
Because MET kinase belonged to Class VIII RTK family have one transmembrane a chain linked with one extracellular β chain which is different form Class III RTK family with 5 Immunoglobin-like extracellular domains. Standard assay conditions were 1 ng of recombinant MET kinase (SignalChem) with 3 ng Biotin-conjugated Poly-(Glu 4: Tyr 1) (Cisbio) in the assay buffer ([…], 10 mM MOPs, pH 7.0, 0.21 mM EDTA, 0.5% glycerol, 1 mg/mL BSA, 0.01% 2-mercaptoethanol, 0.001% Brij35, 10 mM MgCl2) in a final volume of 25 μL. Reactions were incubated at 30° C. for 45 min and stopped by adding 5 μL of 50 mM EDTA. Analysis of resulting product using an AlphaScreen kit and counted with Enspire Alpha (PerkinElmer). […] The IC50 values of inhibitors were determined after carrying out assays with each compound at serially diluted concentrations in duplication. The results were analyzed using linear regression software (GraphPad Prism 5; GraphPad Software Inc.)

Assay [1] has as its system phosphorylation of FLT3 and its down-stream effector STAT5. Kind of assay: Western blotting of p-FLT3 and p-STAT5 in MV4-11 cells. In kind it is cell-based. The conditions noted are these: Homo sapiens; at 30 nM treatment, 3 hours, FLT3-ITD positive MV4-11 leukemia cells; read-out: inhibition activity against phosphorylation of FLT3 and its down-stream effector STAT5. The procedure:
The potent compounds of formula (I) in EXAMPLE 2 were evaluated, by western blotting assay, for their cellular potencies against phosphorylation of FLT3 and its down-stream effector STAT5 in MV4-11 leukemia cell line with constitutive activation of FLT3 signaling. For western blotting experiments, MV4-11 cells were cultured in IMDM medium containing 0.1% FBS overnight. On the assay day, three million cells were treated with or without compounds for 3 hours in 15 mL tubes. Then, the whole cell lysates were harvested, following extraction by adding 2×SDS Sample Buffer and boiling on hot plate at 105° C. for 15 minutes. The resulting cell lysates were separated by SDS-PAGE electrophoresis and transferred to PVDF membrane. Protein expression was detected using immunoblot with corresponding primary antibody and secondary antibody following the standard procedures. Antibody against p-FLT3 (Tyr-591), anti-rabbit IgG HRP-linked secondary antibody, and anti-mouse IgG HRP-linked secondary antibody were purchased from Cell Signaling Technology. Antibody against p-STAT5 (Tyr-694) was purchased from BD biosciences. Antibody against actin was purchased from R&D system. […] Band intensities of western blot were also quantified by ChemiDoc™ MP Imaging System. Relative intensities of bandscorresponding to drug treatments at a single concentration (30 nM) were compared to the DMSO control group. The percentage (%) inhibition at each drug concentration was calculated using the formula: Percentage(%)inhibition=(1−Relative intensity)×100.

T1 sequence (P08581 25-1390): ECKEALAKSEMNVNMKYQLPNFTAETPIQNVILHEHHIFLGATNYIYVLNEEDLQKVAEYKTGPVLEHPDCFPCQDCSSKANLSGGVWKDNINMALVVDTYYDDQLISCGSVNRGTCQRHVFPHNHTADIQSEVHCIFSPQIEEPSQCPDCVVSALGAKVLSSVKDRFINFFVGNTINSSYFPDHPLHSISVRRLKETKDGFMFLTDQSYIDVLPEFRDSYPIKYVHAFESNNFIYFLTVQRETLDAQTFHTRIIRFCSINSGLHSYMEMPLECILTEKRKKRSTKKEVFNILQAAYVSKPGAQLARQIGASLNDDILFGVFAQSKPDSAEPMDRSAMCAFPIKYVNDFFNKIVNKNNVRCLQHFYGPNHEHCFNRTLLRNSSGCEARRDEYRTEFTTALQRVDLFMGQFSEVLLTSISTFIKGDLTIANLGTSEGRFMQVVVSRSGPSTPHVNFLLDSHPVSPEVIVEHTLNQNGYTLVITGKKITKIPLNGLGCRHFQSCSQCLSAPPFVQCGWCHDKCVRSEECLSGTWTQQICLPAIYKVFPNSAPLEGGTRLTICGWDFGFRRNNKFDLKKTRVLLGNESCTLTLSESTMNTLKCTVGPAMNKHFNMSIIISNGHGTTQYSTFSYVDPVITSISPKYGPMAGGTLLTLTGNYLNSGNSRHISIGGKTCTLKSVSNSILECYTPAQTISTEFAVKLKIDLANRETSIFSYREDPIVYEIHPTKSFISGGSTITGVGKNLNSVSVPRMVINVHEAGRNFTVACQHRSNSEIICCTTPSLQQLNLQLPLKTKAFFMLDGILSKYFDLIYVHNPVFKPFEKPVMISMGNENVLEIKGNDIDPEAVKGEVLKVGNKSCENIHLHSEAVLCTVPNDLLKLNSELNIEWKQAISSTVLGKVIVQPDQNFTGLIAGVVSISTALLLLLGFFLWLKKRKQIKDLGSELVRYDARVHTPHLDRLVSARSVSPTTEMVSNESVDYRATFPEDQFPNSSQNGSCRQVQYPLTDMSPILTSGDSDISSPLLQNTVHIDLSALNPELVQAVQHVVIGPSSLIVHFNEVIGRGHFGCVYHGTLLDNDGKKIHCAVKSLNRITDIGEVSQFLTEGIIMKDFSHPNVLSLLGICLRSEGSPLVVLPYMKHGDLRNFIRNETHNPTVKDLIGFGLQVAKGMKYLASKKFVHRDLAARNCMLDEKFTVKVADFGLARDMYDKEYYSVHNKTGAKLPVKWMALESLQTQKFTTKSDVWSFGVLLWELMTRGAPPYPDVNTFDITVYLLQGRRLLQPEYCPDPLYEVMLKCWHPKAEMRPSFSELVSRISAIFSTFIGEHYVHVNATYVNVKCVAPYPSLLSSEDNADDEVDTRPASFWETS

On to `Cn1ncc2ccc(-c3n[nH]c4c3Cc3sc(-c5cnc(N)nc5)cc3-4)cc21` [Compound 45, 5-(3-(1-methyl-1H-indazol-6-yl)-1,4-dihydrothieno [2′,3′:4,5]cyclopenta[l,2-c]pyrazol-6-yl)pyrimidin-2-amine], for which the 50% inhibitory concentration (IC50) on MET kinase is greater than 1000 nM. Besides, the inhibition at 0.03 µM in assay [1] was greater than 50%.
On to `Cn1ncc2ccc(-c3n[nH]c4c3Cc3sc(N5CCOCC5)cc3-4)cc21` [Compound 78, 4-(3-(1-methyl-1H-indazol-6-yl)-1,4-dihydro-thieno[2′,3′:4,5]cyclopenta [1,2-c]pyrazol-6-yl) morpholine], for which the 50% inhibitory concentration (IC50) on MET kinase was greater than 1000 nM. Moreover, the inhibition at 0.03 µM in assay [1] is greater than 50%.
The matching figures for `Cn1ncc2ccc(-c3n[nH]c4c3Cc3sc(-c5ccc(CN6CCNC(=O)C6)cc5)cc3-4)cc21` [Compound 63, 4-(4-(3-(1-methyl-1H-indazol-6-yl)-1,4-dihydro-thieno[2′,3′:4,5]cyclopenta [1,2-c]pyrazol-6-yl)benzyl)piperazin-2-one]: greater than 1000 nM and greater than 50%.
For the compound `Cc1cc(-c2cc3c(s2)Cc2c(-c4ccc5cnn(C)c5c4)n[nH]c2-3)ccn1` [Compound 17, 3-(1-methyl-1H-indazol-6-yl)-6-(2-methylpyridin-4-yl)-1,4-dihydrothieno [2′,3′:4,5]cyclopenta[1,2-c] pyrazole], the half-inhibitory concentration (IC50) on MET kinase was greater than 1000 nM. In assay [1], the inhibition at 0.03 µM was greater than 50%.
Take `COc1cc(-c2cc3c(s2)Cc2c(-c4ccc5cnn(C)c5c4)n[nH]c2-3)ccc1CN1CCOCC1` [Compound 24, 4-(2-methoxy-4-(3-(1-methyl-1H-indazol-6-yl)-1,4-dihydrothieno[2′,3′:4,5]cyclopenta[1,2-c]pyrazol-6-yl)benzyl)morpholine]: the IC50 at MET kinase is greater than 1000 nM. In addition, the inhibition at 0.03 µM in assay [1] was greater than 50%.
For `c1cc(-c2cc3c(s2)Cc2c(-c4ccc5cn[nH]c5c4)n[nH]c2-3)ccc1CN1CCOCC1` [Compound 6, 4-(4-(3-(1H-indazol-6-yl)-1,4-dihydrothieno[2′,3′:4,5]cyclopenta[1,2-c]pyrazol-6-yl)benzyl)morpholine], on MET kinase, the half-inhibitory concentration (IC50) is greater than 1000 nM. Also, the inhibition at 0.03 µM in assay [1] is greater than 50%.
For `C[C@@H]1CN(Cc2ccc(-c3cc4c(s3)Cc3c(-c5ccc6cn[nH]c6c5)n[nH]c3-4)cn2)C[C@H](C)O1` [Compound 16, (2R,6S)-4-((5-(3-(1H-indazol-6-yl)-1,4-dihydro-thieno[2′,3′:4,5]cyclopenta [1,2-c]pyrazol-6-yl)pyridin-2-yl)methyl)-2,6-dimethylmorpholine] the same measures were greater than 1000 nM and greater than 50%.
The matching figures for `Cc1ccc(-c2cc3c(s2)Cc2c(-c4ccc5cnn(C)c5c4)n[nH]c2-3)cn1` [Compound 33, 3-(1-methyl-1H-indazol-6-yl)-6-(6-methylpyridin-3-yl)-1,4-dihydrothieno [2′,3′:4,5]cyclopenta [1,2-c]pyrazole]: greater than 1000 nM and greater than 50%.
For `Cn1ncc2ccc(-c3n[nH]c4c3Cc3sc(-c5csc(C(=O)N6CCOCC6)c5)cc3-4)cc21` [Compound 48, (4-(3-(1-methyl-1H-indazol-6-yl)-1,4-dihydro-thieno[2′,3′:4,5]cyclopenta [1,2-c]pyrazol-6-yl)thiophen-2-yl) (morpholino)methanone], the half-maximal inhibitory concentration (IC50) on MET kinase is greater than 1000 nM. For the same compound, the inhibition at 0.03 µM in assay [1] is greater than 50%.
For the compound `Cn1ncc2ccc(-c3n[nH]c4c3Cc3sc(-c5ccc(CN6CCOCC6)nc5)cc3-4)cc21` [Compound 10, 4-((5-(3-(1-methyl-1H-indazol-6-yl)-1,4-dihydro-thieno[2′,3′:4,5]cyclopenta [1,2-c]pyrazol-6-yl)pyridin-2-yl)methyl)morpholine], the 50% inhibitory concentration (IC50) at MET kinase is greater than 1000 nM. In addition, the inhibition at 0.03 µM in assay [1] was greater than 50%.
`Cn1ncc2ccc(-c3n[nH]c4c3Cc3sc(-c5cccc(CN6CCOCC6)c5)cc3-4)cc21` [Compound 13, 4-(3-(3-(1-methyl-1H-indazol-6-yl)-1,4-dihydro-thieno[2′,3′:4,5]cyclopenta [1,2-c]pyrazol-6-yl)benzyl) morpholine]: the half-inhibitory concentration (IC50) on MET kinase is greater than 1000 nM. Besides, the inhibition at 0.03 µM in assay [1] is greater than 50%.
As to `Cn1ncc2ccc(-c3n[nH]c4c3Cc3sc(-c5ccc(CC6CCOCC6)cc5)cc3-4)cc21` [Compound 77, 3-(1-methyl-1H-indazol-6-yl)-6-(4-((tetrahydro-2H-pyran-4-yl)methyl)phenyl)-1,4-dihydrothieno [2′,3′:4,5]cyclopenta [1,2-c]pyrazole], the 50% inhibitory concentration (IC50) at MET kinase was greater than 1000 nM.
Still for that read-out and setting: with `Cn1ncc2ccc(-c3n[nH]c4c3Cc3sc(-c5ccc(CN6CCOCC6)c(C(F)(F)F)c5)cc3-4)cc21` [Compound 27, 4-(4-(3-(1-methyl-1H-indazol-6-yl)-1,4-dihydrothieno[2′,3′:4,5]cyclopenta[1,2-c]pyrazol-6-yl)-2-(trifluoromethyl)benzyl)morpholine] the figure was greater than 1000 nM.
In the case of `CN(C)c1ccc(-c2cc3c(s2)Cc2c(-c4ccc5cnn(C)c5c4)n[nH]c2-3)cn1` [Compound 5, N,N-dimethyl-5-(3-(1-methyl-1H-indazol-6-yl)-1,4-dihydrothieno [2′,3′:4,5]cyclopenta[1,2-c]pyrazol-6-yl)pyridin-2-amine], the IC50 on MET kinase was greater than 1000 nM.
As for `Cn1ncc2ccc(-c3n[nH]c4c3Cc3sc(-c5cccc(OCCN6CCOCC6)c5)cc3-4)cc21` [Compound 70, 4-(2-(3-(3-(1-methyl-1H-indazol-6-yl)-1,4-dihydro-thieno[2′,3′:4,5]cyclopenta [1,2-c]pyrazol-6-yl)phenoxy)ethyl)morpholine], at MET kinase, the 50% inhibitory concentration (IC50) was greater than 1000 nM.
`Cn1ncc2ccc(-c3n[nH]c4c3Cc3sc(-c5ccc(CN6CCC(F)(F)C6)cc5)cc3-4)cc21` [Compound 67, 6-(4-((3,3-difluoro-pyrrolidin-1-yl)methyl)phenyl)-3-(1-methyl-1H-indazol-6-yl)-1,4-dihydro-thieno[2′,3′:4,5]cyclopenta [1,2-c]pyrazole]: the half-maximal inhibitory concentration (IC50) on MET kinase is greater than 1000 nM.
As for `Cc1ccc(-c2cc3c(s2)Cc2c(-c4ccc5cnn(C)c5c4)n[nH]c2-3)cn1` [Compound 11, 3-(1-methyl-1H-indazol-6-yl)-6-(6-methylpyridin-3-yl)-1,4-dihydrothieno [2′,3′:4,5]cyclopenta[1,2-c] pyrazole], the IC50 at MET kinase is greater than 1000 nM.
Consider `CN1CCN(Cc2cccc(-c3cc4c(s3)Cc3c(-c5ccc6cnn(C)c6c5)n[nH]c3-4)c2)CC1` [Compound 14, 3-(1-methyl-1H-indazol-6-yl)-6-(3-((4-methylpiperazin-1-yl)methyl)phenyl)-1,4-dihydrothieno [2′,3′:4,5]cyclopenta[1,2-c] pyrazole], for which, at MET kinase, the IC50 is greater than 1000 nM.
Consider `Cn1ncc2ccc(-c3n[nH]c4c3Cc3sc(-c5ccc(CN6CC(F)(F)C6)cc5)cc3-4)cc21` [Compound 104, 6-(4-((3,3-difluoroazeti-din-1-yl)methyl)phenyl)-3-(1-methyl-1H-indazol-6-yl)-1,4-dihydrothieno [2′,3′:4,5]cyclopenta [1,2-c]pyrazole], for which the IC50 on MET kinase was greater than 1000 nM.
With `Cn1ncc2ccc(-c3n[nH]c4c3Cc3sc(-c5ccc(C=C6CCOCC6)cc5)cc3-4)cc21` [Compound 76, 3-(1-methyl-1H-indazol-6-yl)-6-(4-((tetrahydro-4H-pyran-4-ylidene)methyl)phenyl)-1,4-dihydrothieno[2′,3′:4,5] cyclopenta[1,2-c]pyrazole], the half-inhibitory concentration (IC50) on MET kinase is greater than 1000 nM.
In the case of `CN(c1ccc(-c2cc3c(s2)Cc2c(-c4ccc5cnn(C)c5c4)n[nH]c2-3)cc1)C1CCOCC1` [Compound 73, N-methyl-N-(4-(3-(1-methyl-1H-indazol-6-yl)-1,4-dihydrothieno [2′,3′:4,5]cyclopenta [1,2-c]pyrazol-6-yl)phenyl)tetrahydro-2H-pyran-4-amine], at MET kinase, the IC50 was greater than 1000 nM.
Regarding `CC(C)Cn1ncc2ccc(-c3n[nH]c4c3Cc3sc(-c5ccc(CN6CCOCC6)cc5)cc3-4)cc21` [Compound 35, 4-(4-(3-(1-isobutyl-1H-indazol-6-yl)-1,4-dihydro-thieno[2′,3′:4,5]cyclopenta [1,2-c]pyrazol-6-yl)benzyl)morpholine], the IC50 at MET kinase was greater than 1000 nM.
Consider `Cc1cc(-c2cc3c(s2)Cc2c(-c4ccc5cnn(C)c5c4)n[nH]c2-3)ccc1CN1CCOCC1` [Compound 26, 4-(2-methyl-4-(3-(1-methyl-1H-indazol-6-yl)-1,4-dihydrothieno[2′,3′:4,5]cyclopenta[1,2-c]pyrazol-6-yl)benzyl)morpholine], for which, at MET kinase, the IC50 was greater than 1000 nM.
